Measurements: ChEMBL document CHEMBL3885881, “DrugMatrix”

Organism: Rattus norvegicus
Assay: DrugMatrix - Regimen: Daily Repeat
Assay type: toxicity, organism-based, Sprague-Dawley
Design: regimen Daily Repeat, gender Male, age 6-8 weeks
Conditions: in vivo, sc, route subcutaneous, […]; for ABSOLUTE BASOPHIL / ABSOLUTE EOSINOPHIL / ABSOLUTE LYMPHOCYTE / ABSOLUTE MONOCYTE / ABSOLUTE SEGMENTED NEUTROPHIL / BASOPHIL / EOSINOPHIL / ERYTHROCYTE COUNT / HEMATOCRIT / HEMOGLOBIN / LEUKOCYTE COUNT / LYMPHOCYTE / MEAN CORPUSCULAR HEMOGLOBIN / MEAN CORPUSCULAR HEMOGLOBIN CONCENTRATION / MEAN CORPUSCULAR VOLUME / MONOCYTE / NEUTROPHIL / NUCLEATED RED BLOOD CELLS / PLATELET COUNT: tissue Blood; for ALANINE AMINOTRANSFERASE / ALBUMIN / ALKALINE PHOSPHATASE / ASPARTATE AMINOTRANSFERASE / BLOOD UREA NITROGEN / CARBON DIOXIDE / CHLORIDE / CHOLESTEROL / CREATINE PHOSPHOKINASE / CREATININE / GLUCOSE / LACTATE DEHYDROGENASE / LIPASE / PHOSPHORUS / POTASSIUM / SODIUM / TOTAL BILIRUBIN / TOTAL PROTEIN / URIC ACID: tissue Plasma
[1] = 0 mg/kg, 72 h, dose level Control, time 3 day
[2] = 0 mg/kg, 120 h, dose level Control, time 5 day
[3] = 0.8 mg/kg, 72 h, dose level Low, time 3 day

SMILES: Oc1c(Cl)cc(Cl)c(Cl)c1Cc1c(O)c(Cl)cc(Cl)c1Cl [HEXACHLOROPHENE]
- ABSOLUTE BASOPHIL [1]: 0 CELLS/uL
- ABSOLUTE EOSINOPHIL [1]: 92.33 CELLS/uL
- ABSOLUTE LYMPHOCYTE [1]: 12247.5 CELLS/uL
- ABSOLUTE MONOCYTE [1]: 389.67 CELLS/uL
- ABSOLUTE SEGMENTED NEUTROPHIL [1]: 1320.5 CELLS/uL
- BASOPHIL [1]: 0%
- EOSINOPHIL [1]: 0.67%
- ERYTHROCYTE COUNT [1]: 5.45 x10E6/uL
- HEMATOCRIT [1]: 34.85%
- HEMOGLOBIN [1]: 12.97 G/DL
- LEUKOCYTE COUNT [1]: 14.05 x10E3/uL
- LYMPHOCYTE [1]: 87.33%
- MEAN CORPUSCULAR HEMOGLOBIN [1]: 23.78 pg
- MEAN CORPUSCULAR HEMOGLOBIN CONCENTRATION [1]: 37.22 G/DL
- MEAN CORPUSCULAR VOLUME [1]: 63.93 fL
- MONOCYTE [1]: 2.67%
- NEUTROPHIL [1]: 9.33%
- NUCLEATED RED BLOOD CELLS [1]: 0 /100WBC
- PLATELET COUNT [1]: 1174 x10E3/uL
- ALANINE AMINOTRANSFERASE [1]: 48.83 u/L
- ALBUMIN [1]: 4.23 G/DL
- ALKALINE PHOSPHATASE [1]: 351.5 u/L
- ASPARTATE AMINOTRANSFERASE [1]: 90 u/L
- BLOOD UREA NITROGEN [1]: 15.33 mg/dL
- CARBON DIOXIDE [1]: 23 mmol/L
- CHLORIDE [1]: 103.5 MEQ/L
- CHOLESTEROL [1]: 70.5 mg/dL
- CREATINE PHOSPHOKINASE [1]: 651.83 u/L
- CREATININE [1]: 0.22 mg/dL
- GLUCOSE [1]: 180.67 mg/dL
- LACTATE DEHYDROGENASE [1]: 165 u/L
- LIPASE [1]: 9.33 u/L
- PHOSPHORUS [1]: 12.03 mg/dL
- POTASSIUM [1]: 6.17 MEQ/L
- SODIUM [1]: 142.62 MEQ/L
- TOTAL BILIRUBIN [1]: 0.2 mg/dL
- TOTAL PROTEIN [1]: 5.73 G/DL
- URIC ACID [1]: 1.77 mg/dL
- ABSOLUTE BASOPHIL [2]: 0 CELLS/uL
- ABSOLUTE EOSINOPHIL [2]: 0 CELLS/uL
- ABSOLUTE LYMPHOCYTE [2]: 12736.67 CELLS/uL
- ABSOLUTE MONOCYTE [2]: 253.5 CELLS/uL
- ABSOLUTE SEGMENTED NEUTROPHIL [2]: 1193.17 CELLS/uL
- BASOPHIL [2]: 0%
- EOSINOPHIL [2]: 0%
- ERYTHROCYTE COUNT [2]: 5.72 x10E6/uL
- HEMATOCRIT [2]: 36.05%
- HEMOGLOBIN [2]: 13.62 G/DL
- LEUKOCYTE COUNT [2]: 14.18 x10E3/uL
- LYMPHOCYTE [2]: 89.33%
- MEAN CORPUSCULAR HEMOGLOBIN [2]: 23.83 pg
- MEAN CORPUSCULAR HEMOGLOBIN CONCENTRATION [2]: 37.8 G/DL
- MEAN CORPUSCULAR VOLUME [2]: 63.05 fL
- MONOCYTE [2]: 1.83%
- NEUTROPHIL [2]: 8.83%
- NUCLEATED RED BLOOD CELLS [2]: 0 /100WBC
- PLATELET COUNT [2]: 1322.17 x10E3/uL
- ALANINE AMINOTRANSFERASE [2]: 48.83 u/L
- ALBUMIN [2]: 4.27 G/DL
- ALKALINE PHOSPHATASE [2]: 295.17 u/L
- ASPARTATE AMINOTRANSFERASE [2]: 75.83 u/L
- BLOOD UREA NITROGEN [2]: 15.5 mg/dL
- CARBON DIOXIDE [2]: 30.5 mmol/L
- CHLORIDE [2]: 102.33 MEQ/L
- CHOLESTEROL [2]: 76.17 mg/dL
- CREATINE PHOSPHOKINASE [2]: 205.5 u/L
- CREATININE [2]: 0.2 mg/dL
- GLUCOSE [2]: 149.67 mg/dL
- LACTATE DEHYDROGENASE [2]: 124.5 u/L
- LIPASE [2]: 10 u/L
- PHOSPHORUS [2]: 10.93 mg/dL
- POTASSIUM [2]: 6.59 MEQ/L
- SODIUM [2]: 143.1 MEQ/L
- TOTAL BILIRUBIN [2]: 0.2 mg/dL
- TOTAL PROTEIN [2]: 6.05 G/DL
- URIC ACID [2]: 1.45 mg/dL
- ABSOLUTE BASOPHIL [3]: 0 CELLS/uL
- ABSOLUTE EOSINOPHIL [3]: 0 CELLS/uL
- ABSOLUTE LYMPHOCYTE [3]: 12277.33 CELLS/uL
- ABSOLUTE MONOCYTE [3]: 275.33 CELLS/uL
- ABSOLUTE SEGMENTED NEUTROPHIL [3]: 1214 CELLS/uL
- BASOPHIL [3]: 0%
- EOSINOPHIL [3]: 0%
- ERYTHROCYTE COUNT [3]: 5.64 x10E6/uL
- HEMATOCRIT [3]: 34.87%
- HEMOGLOBIN [3]: 13.13 G/DL
- LEUKOCYTE COUNT [3]: 13.77 x10E3/uL
- LYMPHOCYTE [3]: 89.33%
- MEAN CORPUSCULAR HEMOGLOBIN [3]: 23.3 pg
- MEAN CORPUSCULAR HEMOGLOBIN CONCENTRATION [3]: 37.67 G/DL
- MEAN CORPUSCULAR VOLUME [3]: 61.83 fL
- MONOCYTE [3]: 2%
- NEUTROPHIL [3]: 8.67%
- NUCLEATED RED BLOOD CELLS [3]: 0 /100WBC
- PLATELET COUNT [3]: 1307.67 x10E3/uL
- ALANINE AMINOTRANSFERASE [3]: 41.67 u/L
- ALBUMIN [3]: 4.47 G/DL
- ALKALINE PHOSPHATASE [3]: 339.67 u/L
- ASPARTATE AMINOTRANSFERASE [3]: 84 u/L
- BLOOD UREA NITROGEN [3]: 18 mg/dL
- CARBON DIOXIDE [3]: 24.67 mmol/L
- CHLORIDE [3]: 102.67 MEQ/L
- CHOLESTEROL [3]: 79.67 mg/dL
- CREATINE PHOSPHOKINASE [3]: 217.33 u/L
- CREATININE [3]: 0.21 mg/dL
- GLUCOSE [3]: 142.33 mg/dL
- LACTATE DEHYDROGENASE [3]: 343.67 u/L
- LIPASE [3]: 10 u/L
- PHOSPHORUS [3]: 13.23 mg/dL
- POTASSIUM [3]: 6.86 MEQ/L
- SODIUM [3]: 144.73 MEQ/L
- TOTAL BILIRUBIN [3]: 0.23 mg/dL
- TOTAL PROTEIN [3]: 6 G/DL
- URIC ACID [3]: 2 mg/dL
